The test system of one series is NCl-H460. As to the kind of experiment: cells. Format: cell-based. As to conditions: 96 h, read-out: IC50 values.
Series [1] in a line: in vitro. As to conditions: mouse, plasma.
Series [2] in a line: in vitro. As to conditions: human, plasma.
In a further series the test system is Jurkat. As to the kind of experiment: cells. It is filed as cell-based. As to conditions: Homo sapiens, 96 h, read-out: IC50 values.
The next series concerns Capan-1. As to the kind of experiment: cells. As to conditions: Homo sapiens, CAPAN-1, 96 h, read-out: IC50 values. Format: cell-based.
A further series in a line: physchem. As to conditions: buffer, pH 7.2.
Another series has as its system SK-Mel3. Description: cells. As to conditions: Homo sapiens, SK-MEL3, 96 h, read-out: IC50 values. It is filed as cell-based.
The test system of the next series is LnCap clone FGC. As to the kind of experiment: cells. It is filed as cell-based. As to conditions: Homo sapiens, 96 h, read-out: IC50 values.
The next series deals with HT-29. Description: cells. As to conditions: Homo sapiens, HT-29, 96 h, read-out: IC50 values. Format: cell-based.
The test system of the next series is MG-63. Description: cells. It is filed as cell-based. As to conditions: Homo sapiens, MG-63, 96 h, read-out: IC50 values.
The next series relates to SK-ES1. As to the kind of experiment: cells. It is filed as cell-based. As to conditions: Homo sapiens, SK-ES1, 96 h, read-out: IC50 values.
The next series concerns HEL 92.1.7. Description: cells. Format: cell-based. As to conditions: Homo sapiens, HEL 92.1.7, 96 h, read-out: IC50 values.
For a further series, the system named is U-937. Description: cells. It is filed as cell-based. As to conditions: Homo sapiens, U-937, 96 h, read-out: IC50 values.

Structures are written as SMILES. Counter-ions that a name gives are not always drawn.

Broadly, the IC50 is the point on the concentration scale where inhibition reaches its midpoint. In general, half-life refers to the time needed for the level to fall by half in the phase considered. The low end stands for fast loss, the high end for slow loss.

For the molecule `Cl.Cn1c(CCCC(=O)O)nc2ccc(N(CCCl)CCCl)cc21` [iso-bendamustine-HCl, 4-{6-[bis(2-chloroethyl)amino]-1-methyl-1H-benzimidazol-2-yl)butanoic acid hydrochloride], the IC50 with NCl-H460 was greater than 100 µM; with Jurkat, 59.5 ± 4 µM; in the series with Capan-1, 24.6 ± 4.4 µM; in the series with SK-Mel3 it was greater than 100 µM; with LnCap clone FGC, 18.9 ± 2.6 µM; with HT-29 it was greater than 100 µM. The IC50 is 50.1 ± 5.5 µM in the series on MG-63, 9.6 ± 1.5 µM in the series on SK-ES1, 76.5 ± 4.5 µM with HEL 92.1.7 and 59.8 ± 5.2 µM with U-937. Further, the half-life stood at 60.5 ± 2.7 min in the series “in vitro [1]”, 83.8 ± 9.3 min in the series “in vitro [2]” and 11.6 ± 1.9 min in “physchem”.
On to `Cn1c(CCCC(=O)O)nc2cc(N(CCCl)CCCl)ccc21` [bendamustine-HCl, 4-{5-[bis(2-chloroethyl)amino]-1-methyl-1H-benzimidazol-2-yl}butanoic acid, reference compound], for which the IC50 with NCl-H460 is 89.5 ± 10.4 µM; in the series with Jurkat it was 42.6 ± 5.6 µM; with Capan-1, 25.2 ± 5.4 µM; in the series on SK-Mel3 it was greater than 100 µM; in the series with LnCap clone FGC, 71.6 ± 5.4 µM; in the series with HT-29, greater than 100 µM. Moreover, the IC50 was 55 ± 3.3 µM in the series on MG-63, 11 ± 1.6 µM with SK-ES1, 84 ± 7.7 µM in the series with HEL 92.1.7 and 91.9 ± 16.4 µM in the series on U-937. The half-life in “in vitro [1]” is 35 ± 2.2 min; in “in vitro [2]”, 131 ± 10.2 min; in the series “physchem”, 10.8 ± 2.9 min.
Regarding `CCOC(=O)CCCc1nc2ccc(N(CCCl)CCCl)cc2n1C` [iso-bendamustine ethyl ester, ethyl 4-{6-[bis(2-chloroethyl)amino]-1-methyl-1H-benzimidazol-2-yl}butanoate], the IC50 in the series on NCl-H460 came to 5.4 ± 0.2 µM; with Jurkat, 3.9 ± 0.3 µM; in the series with Capan-1, 0.91 ± 0.15 µM; with SK-Mel3, 11.7 ± 2.5 µM; in the series with LnCap clone FGC, 1.5 ± 0.34 µM; with HT-29 it was 11 ± 1.1 µM. The IC50 in the series with MG-63 was 1.9 ± 0.1 µM; in the series on SK-ES1, 0.24 ± 0.04 µM; in the series on HEL 92.1.7, 3.5 ± 0.3 µM; in the series with U-937, 1.6 ± 0.03 µM. For the same molecule, the half-life in the series “in vitro [1]” is less than 2 min; in “in vitro [2]”, 141 ± 6.3 min; in the series “physchem”, 15.3 ± 3.8 min.

These data come from patent EP2886536A1 (priority 2013, dated 2015).
